Experimental data from ChEMBL document CHEMBL4418912, “Methods of identifying antagonists of the hTAS2R46 bitter taste receptor” (2014).
Activity calls are given as the source filed them. No cut-off for these calls is given here.

How the values were obtained:
Format in all cases: functional, cell-based
[1] = target: T1, Taste receptor type 2 member 10 (Homo sapiens) (UniProt Q9NYW0); experiment: Agonist activity at recombinant human N-terminal rat ST3 receptor-fused TAS2R10 expressed in HEK293T cells co-expressing Galpha16gust44 assessed as increase in intracellular calcium level at 100 uM by FLIPR assay
T1 sequence (whole entry): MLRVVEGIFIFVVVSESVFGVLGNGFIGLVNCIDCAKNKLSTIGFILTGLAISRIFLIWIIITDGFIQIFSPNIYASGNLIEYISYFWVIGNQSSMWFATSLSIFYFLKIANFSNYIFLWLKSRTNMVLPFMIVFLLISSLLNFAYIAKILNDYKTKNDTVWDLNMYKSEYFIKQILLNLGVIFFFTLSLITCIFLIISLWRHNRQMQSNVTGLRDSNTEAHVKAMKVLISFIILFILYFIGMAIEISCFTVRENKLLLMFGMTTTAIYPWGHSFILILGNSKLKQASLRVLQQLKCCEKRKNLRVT

[2] = target: Taste receptor type 2 member 40 (Homo sapiens) (UniProt P59535); experiment: Antagonist activity at recombinant human N-terminal rat ST3 receptor-fused TAS2R40 expressed in HEK293T cells co-expressing Galpha16gust44 assessed as inhibition of cohumulone-induced intracellular calcium level at 100 uM by FLIPR assay
[3] = target: T2, Taste receptor type 2 member 3 (Homo sapiens) (UniProt Q9NYW6); experiment: Antagonist activity at recombinant human N-terminal rat ST3 receptor-fused TAS2R3 expressed in HEK293T cells co-expressing Galpha16gust44 assessed as inhibition of chloroquine-induced increase in intracellular calcium level at 100 uM by FLIPR assay
T2 sequence (whole entry): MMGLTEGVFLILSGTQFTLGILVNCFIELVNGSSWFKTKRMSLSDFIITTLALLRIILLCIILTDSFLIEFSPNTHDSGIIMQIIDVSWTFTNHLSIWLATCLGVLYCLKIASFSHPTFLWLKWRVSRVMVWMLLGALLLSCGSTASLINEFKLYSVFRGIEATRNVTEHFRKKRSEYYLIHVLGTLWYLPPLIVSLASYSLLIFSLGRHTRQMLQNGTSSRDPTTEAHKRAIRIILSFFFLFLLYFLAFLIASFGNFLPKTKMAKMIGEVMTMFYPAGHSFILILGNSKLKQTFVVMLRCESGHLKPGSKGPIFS

[4] = target: T1, Taste receptor type 2 member 10 (Homo sapiens); experiment: Antagonist activity at recombinant human N-terminal rat ST3 receptor-fused TAS2R10 expressed in HEK293T cells co-expressing Galpha16gust44 assessed as inhibition of strychnine-induced increase in intracellular calcium level at 100 uM by FLIPR assay
[5] = target: T3, Taste receptor type 2 member 13 (Homo sapiens) (UniProt Q9NYV9); experiment: Antagonist activity at recombinant human N-terminal rat ST3 receptor-fused TAS2R13 expressed in HEK293T cells co-expressing Galpha16gust44 assessed as inhibition of denatonium benzoate-induced increase in intracellular calcium level at 100 uM by FLIPR assay
T3 sequence (whole entry): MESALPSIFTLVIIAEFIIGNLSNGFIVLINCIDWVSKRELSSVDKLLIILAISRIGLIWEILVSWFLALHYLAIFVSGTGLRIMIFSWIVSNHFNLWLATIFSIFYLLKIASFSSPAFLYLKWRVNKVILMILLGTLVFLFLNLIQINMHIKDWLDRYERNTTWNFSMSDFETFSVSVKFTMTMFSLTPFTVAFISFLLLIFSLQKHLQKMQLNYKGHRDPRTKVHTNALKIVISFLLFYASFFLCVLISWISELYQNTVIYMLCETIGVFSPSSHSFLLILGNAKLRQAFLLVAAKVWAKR

[6] = target: T4, Taste receptor type 2 member 14 (Homo sapiens) (UniProt Q9NYV8); experiment: Antagonist activity at recombinant human N-terminal rat ST3 receptor-fused TAS2R14 expressed in HEK293T cells co-expressing Galpha16gust44 assessed as inhibition of aristolochic acid-induced increase in intracellular calcium level at 100 uM by FLIPR assay
T4 sequence (whole entry): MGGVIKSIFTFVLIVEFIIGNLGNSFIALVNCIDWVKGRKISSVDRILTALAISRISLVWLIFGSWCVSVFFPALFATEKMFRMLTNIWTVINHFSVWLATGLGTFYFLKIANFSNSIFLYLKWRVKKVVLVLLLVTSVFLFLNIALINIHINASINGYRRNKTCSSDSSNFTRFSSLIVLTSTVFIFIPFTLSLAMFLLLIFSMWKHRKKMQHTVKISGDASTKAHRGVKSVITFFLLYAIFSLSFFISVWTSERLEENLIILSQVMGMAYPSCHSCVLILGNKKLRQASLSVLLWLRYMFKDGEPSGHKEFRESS

[7] = target: T5, Taste receptor type 2 member 39 (Homo sapiens) (UniProt P59534); experiment: Antagonist activity at recombinant human N-terminal rat ST3 receptor-fused TAS2R39 expressed in HEK293T cells co-expressing Galpha16gust44 assessed as inhibition of epigallocatechin galiate-induced increase in intracellular calcium level at 100 uM by FLIPR assay
T5 sequence (whole entry): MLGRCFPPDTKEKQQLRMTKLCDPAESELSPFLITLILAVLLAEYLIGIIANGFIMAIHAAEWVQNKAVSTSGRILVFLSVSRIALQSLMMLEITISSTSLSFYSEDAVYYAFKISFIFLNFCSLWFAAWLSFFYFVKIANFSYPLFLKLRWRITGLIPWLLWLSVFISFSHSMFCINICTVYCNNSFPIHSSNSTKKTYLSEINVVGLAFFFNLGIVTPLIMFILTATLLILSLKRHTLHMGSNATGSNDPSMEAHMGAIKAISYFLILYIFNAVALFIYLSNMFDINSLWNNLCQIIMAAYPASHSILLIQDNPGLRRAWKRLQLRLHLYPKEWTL

[8] = target: T6, Taste receptor type 2 member 31 (Homo sapiens) (UniProt P59538); experiment: Antagonist activity at recombinant human N-terminal rat ST3 receptor-fused TAS2R44 expressed in HEK293T cells co-expressing Galpha16gust44 assessed as inhibition of aristolochic acid-induced intracellular calcium level at 100 uM by FLIPR assay
T6 sequence (whole entry): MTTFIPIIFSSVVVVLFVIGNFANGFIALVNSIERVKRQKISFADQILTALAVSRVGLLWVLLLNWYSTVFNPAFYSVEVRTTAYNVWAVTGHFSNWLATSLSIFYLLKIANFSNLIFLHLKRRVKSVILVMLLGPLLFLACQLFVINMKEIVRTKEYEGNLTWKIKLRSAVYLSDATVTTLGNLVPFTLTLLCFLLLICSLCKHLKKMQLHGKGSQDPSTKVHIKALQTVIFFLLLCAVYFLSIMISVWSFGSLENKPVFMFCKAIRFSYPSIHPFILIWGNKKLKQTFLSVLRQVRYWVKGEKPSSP

[9] = system: HEK-293T; experiment: Effect on intracellular calcium level in mock-transfected HEK293T cells at 100 uM FLIPR assay; details: Homo sapiens

Taste receptor type 2 member 40 (Homo sapiens), sequence (P59535 whole entry, the tested form may be a part): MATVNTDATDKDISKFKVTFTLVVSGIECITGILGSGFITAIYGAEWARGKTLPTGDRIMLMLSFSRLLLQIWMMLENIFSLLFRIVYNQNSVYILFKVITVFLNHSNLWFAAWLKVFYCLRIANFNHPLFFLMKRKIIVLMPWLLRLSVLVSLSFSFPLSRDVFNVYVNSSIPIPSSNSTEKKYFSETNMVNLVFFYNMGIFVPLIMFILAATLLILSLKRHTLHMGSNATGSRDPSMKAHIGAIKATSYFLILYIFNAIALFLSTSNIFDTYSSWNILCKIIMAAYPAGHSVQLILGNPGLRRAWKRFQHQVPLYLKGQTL

| SMILES | Activity [1] | inhibition [2] | inhibition [3] | inhibition [4] | inhibition [5] | inhibition [6] | inhibition [7] | inhibition [8] | Activity [9] |
| --- | --- | --- | --- | --- | --- | --- | --- | --- | --- |
| C/C1=C\C[C@H](O)[C@@H](C)C[C@H]2OC(=O)[C@@H](C)[C@@H]2CC1 | Active | Active | inactive | inactive | inactive | inactive | inactive | Active | inactive |
| C/C1=C\C[C@H](O)/C(C)=C/[C@H]2OC(=O)[C@@H](C)[C@@H]2CC1 | Active | Active | inactive | inactive | inactive | inactive | inactive | inactive | inactive |
